Measured values taken from patent publication US12404232B2, “Compounds and compositions for intracellular delivery of therapeutic agents” (ModernaTX, Inc., priority 2015, dated 2025).

Assays:
[1] = Encapsulation of RNA by the nanoparticle composition (QUANT-IT RIBOGREEN RNA assay); assay type: physicochemical
From the text: The efficiency of encapsulation of a therapeutic and/or prophylactic describes the amount of therapeutic and/or prophylactic that is encapsulated or otherwise associated with a nanoparticle composition after preparation, relative to the initial amount provided. The encapsulation efficiency is desirably high (e.g., close to 100%). The encapsulation efficiency may be measured, for example, by comparing the amount of therapeutic and/or prophylactic in a solution containing the nanoparticle composition before and after breaking up the nanoparticle composition with one or more organic solvents or detergents. Fluorescence may be used to measure the amount of free therapeutic and/or prophylactic (e.g., RNA) in a solution. For the nanoparticle compositions described herein, the encapsulation efficiency of a therapeutic and/or prophylactic may be at least 50%, for example 50%, 55%, 60%, 65%, 70%, 75%, 80%, 85%, 90%, 91%, 92%, 93%, 94%, 95%, 96%, 97%, 98%, 99%, or 100%. In some embodiments, the encapsulation efficiency may be at least 80%. In certain embodiments, the encapsulation efficiency may be at least 90%.
For nanoparticle compositions including an RNA, a QUANT-IT™ RIBOGREEN® RNA assay (Invitrogen Corporation Carlsbad, CA) can be used to evaluate the encapsulation of an RNA by the nanoparticle composition. The samples are diluted to a concentration of approximately […] in a TE buffer solution (10 mM Tris-HCl, 1 mM EDTA, pH 7.5). 50 μL of the diluted samples are transferred to a polystyrene 96 well plate and either 50 μL of TE buffer or 50 μL of a 2% Triton X-100 solution is added to the wells. The plate is incubated at a temperature of 37° C. for 15 minutes. The RIBOGREEN® reagent is diluted 1:100 in TE buffer, and 100 μL of this solution is added to each well. The fluorescence intensity can be measured using a fluorescence plate reader (Wallac Victor 1420 Multilablel Counter; Perkin Elmer, Waltham, MA) at an excitation wavelength of, for example, about 480 nm and an emission wavelength of, for example, about 520 nm. The fluorescence values of the reagent blank are subtracted from that of each of the samples and the percentage of free RNA is determined by dividing the fluorescence intensity of the intact sample (without addition of Triton X-100) by the fluorescence value of the disrupted sample (caused by the addition of Triton X-100).
Initial studies were performed to compare the delivery efficiency of nanoparticle compositions including various compounds according to Formula (I), (IA), (II), (IIa), (IIb), (IIc), (IId) or (IIe). The cationic lipid MC3 is a current standard in the art. Accordingly, the standard MC3 formulation including about 50 mol % MC3, about 10 mol % DSPC, about 38.5 mol % cholesterol, and about 1.5 mol % PEG-DMG was used as a basis for this study. Nanoparticle compositions including DSPC as a phospholipid, cholesterol as a structural lipid, PEG-DMG as a PEG lipid, an RNA, and a compound according to Formula (I), (IA), (II), (IIa), (IIb), (IIc), (IId) or (IIe) selected from Compounds 1-159, 168-170, and 173-175 were prepared according to or via methods similar to those described in Examples 1 and 2. The ratios of the lipids were 50:10:38.5:1.5 mol % for the lipid according to Formula (I), (IA), (II), (IIa), (IIb), (IIc), (IId) or (IIe):DSPC:cholesterol:PEG-DMG. The RNA used was an mRNA encoding G5 luciferase (Luc) or G5 hEPO. Tables 1A-1B summarize the content and characteristics of the formulations. […]

mice [2] = test: Cytokine induction (IL-6, IP-10) in mice after intravenous administration; assay type: in vivo; parameters: IL-6 / IP-10: unit not given here; conditions: 0.5 mpk; for IL-6 / IP-10: 6 hours
From the text: The introduction of foreign material into a mammalian body induces an innate immune response that promotes cytokine production. Such immune responses to, for example, nanoparticle compositions including therapeutic and/or prophylactics, are undesirable. The induction of certain cytokines is thus measured to evaluate the […] of nanoparticle compositions. The concentrations of various cytokines in mice upon intravenous administration of nanoparticle compositions presented in Table 1A at a dosage of 0.5 mpk was measured at 6 hours. The standard MC3 formulation and a PBS control were also tested. As is evident in Table 7, IL-6 induction was highest for compositions including Compounds 1, 3, 9, 19, and 26, while IP-10 induction was highest for compositions including Compounds 3, 4, 7, 20, and 26. IL-6 induction was lowest for compositions including Compounds 4, 11, 12, and 28. IP-10 induction was lowest for compositions including Compounds 10, 11, 12, 13, 15, 17, and 18.
(§1) The expression of hEPO and cytokine induction in mice intravenously administered a nanoparticle composition at a dose of 0.5 mpk were measured at 3, 6, and 24 hours. […] The expression of hEPO in mice intramuscularly administered a nanoparticle composition from Table 1B at a dose of 0.01 mpk were measured at 3, 6, and 24 hours. […] (see also FIG. 9.)

[3] = Particle size and polydispersity index of nanoparticle compositions (Zetasizer Nano ZS); assay type: physicochemical; conditions: for PDI: nanoparticle composition 50:10:38.5:1.5 mol % (Table 1A)
Procedure, shortened: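 Particle size and PDI by Zetasizer Nano ZS dynamic light scattering in 1×PBS. Lipid nanoparticles carried mRNA (luciferase or hEPO) with ionizable lipid:DSPC:cholesterol:PEG-DMG at 50:10:38.5:1.5 mol %.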

mice [4] = test: hEPO expression in mice after intravenous administration; assay type: in vivo
Procedure: Sample formulations of nanoparticle compositions including different lipids are generally first evaluated according to Luc expression in vivo. The activity of several such compositions was further evaluated using an mRNA encoding hEPO. Nanoparticle compositions including Compounds 6, 18, 25, 30, 108-112, 60, and 122, or MC3 were prepared according to Example 2.
as §1
Table 12 compares the nanoparticle compositions including compounds according to Formula (I), (IA), (II), (IIa), (IIb), (IIc), (IId) or (IIe) to the compositions including MC3 on the basis of expression and flux levels. […] Thus, these lipids may be useful in nanoparticle composition therapeutics. […]

mice [5] = test: Luc expression (total flux) after intramuscular administration; assay type: in vivo; conditions: i.m., Luc, 6 h
mice [6] = test: Luc expression (bioluminescence, total flux) after intravenous administration to mice; assay type: in vivo; conditions: Luc total flux (Table 3D)
Procedure: In order to monitor how effectively various nanoparticle compositions deliver therapeutic and/or prophylactics to targeted cells, different nanoparticle compositions including a particular therapeutic and/or prophylactic (for example, a modified or naturally occurring RNA such as an mRNA) are prepared and administered to rodent populations. Mice are intravenously, intramuscularly, intraarterially, or intratumorally administered a single dose including a nanoparticle composition with a formulation such as those provided in Example 3. In some instances, mice may be made to inhale doses. Dose sizes may range from 0.001 mg/kg to 10 mg/kg, where 10 mg/kg describes a dose including 10 mg of a therapeutic and/or prophylactic in a nanoparticle composition for each 1 kg of body mass of the mouse. A control composition including PBS may also be employed.
Upon administration of nanoparticle compositions to mice, dose delivery profiles, dose responses, and toxicity of particular formulations and doses thereof can be measured by enzyme-linked immunosorbent assays (ELISA), bioluminescent imaging, or other methods. For nanoparticle compositions including mRNA, time courses of protein expression can also be evaluated. Samples collected from the rodents for evaluation may include blood, sera, and tissue (for example, muscle tissue from the site of an intramuscular injection and internal tissue); sample collection may involve sacrifice of the animals.
The efficacy of the nanoparticle compositions presented in Table 1A was evaluated with a bioluminescence study. Formulations were administered intravenously to mice (n=6) at a dosage of 0.5 mg/kg (mpk) and bioluminescence measured at 3, 6, and 24 hour time points. The standard MC3 formulation and, in some instances, a control (e.g., a PBS control) were evaluated for comparison. […] In general, flux decreased as time progressed to less than 10% of the initial flux.
The total flux (measured by area under the curve, AUC) induced by administration of a formulation including a given lipid relative to that induced by administration of a formulation including MC3 was also measured for several lipids.
The tolerability and efficacy of nanoparticle compositions to non-human primates was also investigated using sample formulations including Compounds 18, 25, 26, and 48 and MC3 to determine if these compounds are differentiated in terms of protein expression. The formulations were prepared according to the standard MC3 formulation described above and included an hEPO mRNA. Table 30 includes details of the compositions tested, while Table 31 summarizes the relative expression of Luc and hEPO mRNA in mice and rats. Expression was measured 6 hours after administration.

[7] = nanoparticle composition 50:10:38.5:1.5 mol % (Table 1A)
[8] = nanoparticle composition lipid:DSPC:cholesterol:PEG-DMG 50:10:38.5:1.5 mol %, mRNA encoding Luc or hEPO (Table 1A)

| EE (%) [1, 7] | PDI [3] | Size (nm) [3, 8] | SMILES | i.m. Lipid/MC3 0.01 mpk, Luc, 6h (mice [5]) | further results |
| --- | --- | --- | --- | --- | --- |
|  | 0.12 | 61.4 nm | CCCCCCCCCOC(=O)CCCCCCCN(CCCCCCCC(=O)OC(CCCCCCCC)CCCCCCCC)CCCN1C(=O)CNC1=O [Compound 174, Heptadecan-9-yl 8-((3-(2,5-dioxoimidazolidin-1-yl)propyl)(8-(nonyloxy)-8-oxooctyl)amino)octanoate] | 0.2 |  |
|  | 0.12 | 71.7 nm | CCCCCCCCCOC(=O)CCCCCCCN(CCCCCCCC(=O)OC(CCCCCCCC)CCCCCCCC)CCCN/C(=C/[N+](=O)[O-])NC [Compound 170, Heptadecan-9-yl (E)-8-((3-((1-(methylamino)-2-nitrovinyl)amino)propyl)(8-(nonyloxy)-8-oxooctyl)amino)octanoate] | 5.3 |  |
|  | 0.18 | 75.4 nm | CCCCCCCCCOC(=O)CCCCCCCN(CCCCCCCC(=O)OC(CCCCCCCC)CCCCCCCC)CCCNc1c(N(C)C)c(=O)c1=O [Compound 169, Heptadecan-9-yl 8-((3-((2-(dimethylamino)-3,4-dioxocyclobut-1-en-1-yl)amino)propyl)(8-(nonyloxy)-8-oxooctyl)amino)octanoate] | 3.3 |  |
| 93.23% | 0.2 | 65.4 nm | CCCCCCCCCOC(=O)CCCCCCCN(CCCCCCCC(=O)OC(CCCCCCCC)CCCCCCCC)CCCOC(=O)NC [Compound 175, Heptadecan-9-yl 8-((3-((methylcarbamoyl)oxy)propyl)(8-(nonyloxy)-8-oxooctyl)amino)octanoate] | 0.1 |  |

Second part, the compound before the results:

| SMILES | EE (%) [1, 7] | PDI [3] | Size (nm) [3, 8] | i.m. Lipid/MC3 0.01 mpk, Luc, 6h (mice [5]) | further results |
| --- | --- | --- | --- | --- | --- |
| CCCCCCCCCOC(=O)CCCCCCCN(CCO)CCCCCCC(=O)OCC(CCCCCCCC)CCCCCCCC [Compound 143, Nonyl 8-((2-hydroxyethyl)(7-((2-octyldecyl)oxy)-7-oxoheptyl)amino)octanoate] | 96.4% | 0.19 | 93.3 nm |  | IL-6 (mice [2]): 6.245; IP-10 (mice [2]): 209.63 |
| CCCCC/C=C\C/C=C\CCCCCCCCN(CCO)CCCCCCCC(=O)OC(CCCCCCCC)CCCCCCCC [Compound 6, Heptadecan-9-yl 8-((2-hydroxyethyl)((9Z,12Z)-octadeca-9,12-dien-1-yl)amino)octanoate] |  |  |  |  | EE (%) ([1]; hEPO mRNA, (50:10:38.5:1.5) (Table 10)): 97.84%; IL-6 (mice [2]): 136.18; IP-10 (mice [2]): 316.01; Cytokine expression (pg/ml) IL-6 (6 h) (mice [2]; hEPO mRNA, 6 h): 10.15 pg/mL; Cytokine expression (pg/ml) IP-10 (6 h) (mice [2]; hEPO mRNA, 6 h): 116.66 pg/mL; Size (nm) ([3]; hEPO mRNA, lipid:DSPC:Chol:PEG-DMG (50:10:38.5:1.5) (Table 10)): 70.5 nm; hEPO concentrations compared with MC3 formulations at each time point (mice [4]; 0.5 mpk, 3, 6 and 24 hours): higher hEPO concentrations than MC3 formulations; hEPO expression (pg/ml) 3h (mice [4]; 0.5 mpk, 3 h): 2.31e+06 pg/mL; hEPO expression (pg/ml) 6 h (mice [4]; 0.5 mpk, 6 h): 3.17e+06 pg/mL; hEPO expression (pg/ml) 24 h (mice [4]; 0.5 mpk, 24 h): 1.11e+06 pg/mL |
| CCCCCCCCCOC(=O)CCCCCCCN(CCCCCCCC(=O)OC(CCCCCCCC)CCCCCCCC)CCCNS(C)(=O)=O [Compound 109, Heptadecan-9-yl 8-((3-(methylsulfonamido)propyl)(8-(nonyloxy)-8-oxooctyl)amino)octanoate] |  |  |  | 3.6 |  |
| CCCCCCCCCOC(=O)CCCCCCCN(CCCCCCCC(=O)OC(CCCCCCCC)CCCCCCCC)C(C)CO (stereo not shown) [Compound 157, Heptadecan-9-yl 8-((1-hydroxypropan-2-yl)(8-(nonyloxy)-8-oxooctyl)amino)octanoate] | 96.43% | 0.096 | 69.6 nm |  | AUC (p/s*h) (mice [6]): 2.481E+011 p/s*h |
| CCCCCCCCCOC(=O)CCCCCCCN(CCCCCCCC(=O)OC(CCCCCCCC)CCCCCCCC)CCCNC(=S)N(C)C [Compound 111, Heptadecan-9-yl 8-((3-(3,3-dimethylthioureido)propyl)(8-(nonyloxy)-8-oxooctyl)amino)octanoate] |  | 0.14 | 79.3 nm | 4.9 |  |
| CCCCCCCCCOC(=O)CCCCCCCN(CCCCCCCC(=O)OC(CCCCCCCC)CCCCCCCC)CCCN(C)S(C)(=O)=O [Compound 173, Heptadecan-9-yl 8-((3-(N-methylmethylsulfonamido)propyl)(8-(nonyloxy)-8-oxooctyl)amino)octanoate] |  |  |  | 0.6 |  |
